PMC2528936, “Snake Cathelicidin from Bungarus fasciatus Is a Potent Peptide Antibiotics” (PLoS ONE, 2008)
Converted amounts (≈) assume the structure as drawn.

Columns and labels:
Bacillus subtilis = test: microbe, parasite or virus in culture; details: Bacillus subtilis
Protocol: (§1) Antimicrobial activities of cathelicidin-BF and cathelicidin-BF15 ([…]) were tested according to our previous methods [39]–[42]. […] The details were provided in the Materials and Methods S1.
(§2) Standard and clinically isolated microorganism strains were used for antimicrobial assays. Bacteria were first grown in LB (Luria-Bertani) broth to an OD600 nm of 0.8. A 10 µl aliquot of the bacteria was then taken and added to 8 ml of fresh LB broth with 0.7% agar and poured over a 90 mm Petri dish containing 25 ml of 1.5% agar in LB broth. After the top agar hardened, a 20 µl aliquot of the test sample filtered on a 0.22 µm Millipore filter was dropped onto the surface of the top agar and completely dried before being incubated overnight at 37 °C. If the sample examined had antimicrobial activity, a clear zone would be formed on the surface of the top agar representing inhibition of bacterial growth. Minimal inhibitory concentration (MIC) was determined in liquid LB medium by incubating the bacteria in LB broth with variable amounts of the sample tested. The MIC at which no visible growth occurred was recorded. In the assays of anti-fungi activity, for strains of Aspergillus terreus, A. niculans, and Chaetomium globosum, the fungal spore concentration was first counted under a microscope. The fungi with an initial concentration of 10^5 spores/ml were cultured with variable amounts of the sample tested in yeast extract-peptone-dextrose broth.

[1] = test system: Staphylococcus aureus ATCC2592; test: microbe, parasite or virus in culture; details: Staphylococcus aureus, ATCC2592
Protocol: as §1, §2

Bacillus pumilus = test: microbe, parasite or virus in culture; details: Bacillus pumilus
Protocol: as §1, §2

[2] = test system: Pseudomonas aeruginosa ATCC27853; test: microbe, parasite or virus in culture; details: Pseudomonas aeruginosa, ATCC27853
Protocol: as §1, §2

[3] = test system: Acinetobacter calcoaceticus; test: microbe, parasite or virus in culture; details: Acinetobacter calcoaceticus
Protocol: as §1, §2

[4] = test system: Candida albicans ATCC2002; test: microbe, parasite or virus in culture; details: Candida albicans
Protocol: as §1, §2

Bacillus cereus = test: microbe, parasite or virus in culture; details: Bacillus cereus
Protocol: as §1, §2

[5] = test system: Escherichia coliATCC25922; test: microbe, parasite or virus in culture; details: Escherichia, COLIATCC25922
Protocol: as §1, §2

[6] = test system: K. pneumoniae standard strain; test: MIC determination, standard strain; format: cell-based; details: Klebsiella pneumoniae
Protocol: as §1
as §2, with “The fungi with an initial concentration of 10^5 spores/ml were cultured with variable amounts of the sample tested in yeast extract-peptone-dextrose broth.” left out

Chaetomium globosum = details: saprophytic fungus; 10^5 spores/ml, yeast extract-peptone-dextrose broth; mean of three independent experiments in duplicates; ND = no detectable activity
Protocol: as §1, §2

Aspergillus niculans = details: saprophytic fungus; 10^5 spores/ml, yeast extract-peptone-dextrose broth; mean of three independent experiments in duplicates; ND = no detectable activity
Protocol: as §1, §2

[7] = test system: Aspergillus terreus GIM3.34; details: saprophytic fungus; 10^5 spores/ml, yeast extract-peptone-dextrose broth; mean of three independent experiments in duplicates; ND = no detectable activity
Protocol: as §1, §2

CC1(C)S[C@@H]2[C@H](NC(=O)[C@H](N)c3ccccc3)C(=O)N2[C@H]1C(=O)O [ampicillin]
MIC (Bacillus subtilis): 0.02 µg/mL (≈ 0.0572 µM)
MIC [1]: 0.15 µg/mL (≈ 0.429 µM)
MIC (Bacillus pumilus): 0.15 µg/mL (≈ 0.429 µM)
MIC [2]: 150 µg/mL (≈ 429 µM)
MIC [3]: 75 µg/mL (≈ 215 µM)
MIC [4]: 0.3 µg/mL (≈ 0.859 µM)
MIC (Bacillus cereus): 150 µg/mL (≈ 429 µM)
MIC [5]: 18.7 µg/mL (≈ 53.5 µM)
MIC [6]: 150 µg/mL (≈ 429 µM)
MIC (Chaetomium globosum): no effect
MIC (Aspergillus niculans): no effect
MIC [7]: no effect

CC1(C)S[C@@H]2[C@H](NC(=O)Cc3ccccc3)C(=O)N2[C@H]1C(=O)O [benzylpenicillin]
MIC (Bacillus subtilis): 0.004 µg/mL (≈ 0.012 µM)
MIC [1]: 0.03 µg/mL (≈ 0.0897 µM)
MIC (Bacillus pumilus): 0.015 µg/mL (≈ 0.0449 µM)
MIC [2]: 18.7 µg/mL (≈ 55.9 µM)
MIC [3]: 37.5 µg/mL (≈ 112 µM)
MIC [4]: 0.03 µg/mL (≈ 0.0897 µM)
MIC (Bacillus cereus): 150 µg/mL (≈ 449 µM)
MIC [5]: 37.5 µg/mL (≈ 112 µM)
MIC [6]: 18.7 µg/mL (≈ 55.9 µM)
MIC (Chaetomium globosum): no effect
MIC (Aspergillus niculans): no effect
MIC [7]: no effect
